# From ChEMBL document CHEMBL1201862, “PubChem BioAssay data set” (2004)
# Structures can show the parent of a compound that is named as a salt. The source made the active and inactive calls.
# Columns and labels:
# Cytochrome P450 1A2 = target: T1, Cytochrome P450 1A2 (Homo sapiens, UniProt P05177);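 note: PubChem cytochrome P450 panel assay, CYP1A2 panel member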
# T1 sequence (P05177 whole entry): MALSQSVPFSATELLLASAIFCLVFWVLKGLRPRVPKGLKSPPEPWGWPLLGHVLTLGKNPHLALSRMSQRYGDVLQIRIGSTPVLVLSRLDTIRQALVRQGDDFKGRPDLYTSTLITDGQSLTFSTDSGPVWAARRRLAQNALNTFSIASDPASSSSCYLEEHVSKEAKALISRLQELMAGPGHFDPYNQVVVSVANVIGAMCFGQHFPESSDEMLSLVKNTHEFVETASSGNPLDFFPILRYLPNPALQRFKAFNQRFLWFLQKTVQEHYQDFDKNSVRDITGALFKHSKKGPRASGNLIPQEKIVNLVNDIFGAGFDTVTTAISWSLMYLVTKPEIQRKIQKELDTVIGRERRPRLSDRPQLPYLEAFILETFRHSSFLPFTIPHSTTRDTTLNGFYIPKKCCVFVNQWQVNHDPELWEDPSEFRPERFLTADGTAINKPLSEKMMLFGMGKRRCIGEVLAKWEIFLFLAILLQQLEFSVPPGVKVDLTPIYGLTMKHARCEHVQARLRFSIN
# [1] = target: T2, Rac GTPase-activating protein 1 (Homo sapiens, UniProt Q9H0H5); assay: MgcRacGAP GTPase-activating activity inhibitors, confirmation, biochemical, ADP Hunter fluorescence, primary and confirmatory (AID 624330); assay type: functional
# T2 sequence (Q9H0H5 whole entry): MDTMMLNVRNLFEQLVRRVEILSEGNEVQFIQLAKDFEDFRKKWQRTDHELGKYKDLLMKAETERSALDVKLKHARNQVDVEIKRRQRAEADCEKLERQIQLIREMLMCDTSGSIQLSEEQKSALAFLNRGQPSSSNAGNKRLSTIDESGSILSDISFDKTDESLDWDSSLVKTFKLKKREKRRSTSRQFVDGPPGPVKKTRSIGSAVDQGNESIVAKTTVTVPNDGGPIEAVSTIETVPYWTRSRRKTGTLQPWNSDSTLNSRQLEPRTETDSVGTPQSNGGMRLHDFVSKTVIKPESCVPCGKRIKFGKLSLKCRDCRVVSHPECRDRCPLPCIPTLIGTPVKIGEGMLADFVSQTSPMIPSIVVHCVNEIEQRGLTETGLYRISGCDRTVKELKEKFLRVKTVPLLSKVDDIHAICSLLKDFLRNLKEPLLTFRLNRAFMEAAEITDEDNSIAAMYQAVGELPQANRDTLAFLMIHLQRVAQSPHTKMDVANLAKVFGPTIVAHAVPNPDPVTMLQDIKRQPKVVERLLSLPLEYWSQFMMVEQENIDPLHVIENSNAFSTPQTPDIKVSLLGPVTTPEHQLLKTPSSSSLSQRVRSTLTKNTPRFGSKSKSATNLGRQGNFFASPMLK
# [2] = target: T3, Heat shock factor protein 1 (Mus musculus, UniProt P38532); assay: inhibition of MG132-induced HSE-luciferase signal, confirmation, cell-based, NIH3T3, luminescence, dose retest (AID 2382); assay type: functional;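 note: NIH3T3 fibroblasts with HSF1-driven luciferase reporter stressed by proteasome inhibitor MG132; luminescence from HSF1-driven luciferase expression after 8 hours of MG132 stress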
# T3 sequence (P38532 whole entry): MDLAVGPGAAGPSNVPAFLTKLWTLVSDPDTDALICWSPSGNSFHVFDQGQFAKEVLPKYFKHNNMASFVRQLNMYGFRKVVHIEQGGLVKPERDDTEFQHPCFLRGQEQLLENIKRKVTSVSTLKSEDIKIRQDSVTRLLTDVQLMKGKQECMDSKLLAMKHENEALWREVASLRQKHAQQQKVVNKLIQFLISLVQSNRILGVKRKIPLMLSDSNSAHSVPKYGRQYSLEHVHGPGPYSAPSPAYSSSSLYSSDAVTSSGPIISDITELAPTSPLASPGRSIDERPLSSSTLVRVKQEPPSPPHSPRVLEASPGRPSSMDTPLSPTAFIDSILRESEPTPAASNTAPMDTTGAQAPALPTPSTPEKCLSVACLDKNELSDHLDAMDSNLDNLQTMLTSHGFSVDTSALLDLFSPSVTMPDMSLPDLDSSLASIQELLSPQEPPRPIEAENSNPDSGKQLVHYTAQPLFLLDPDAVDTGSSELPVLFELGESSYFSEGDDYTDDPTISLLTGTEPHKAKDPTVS
# [3] = Luminescence Cell-Based Dose Retest to Confirm Inhibitors of Cancer Stem Cells. [Related pubchem assays (depositor defined):AID2717, AID2721]; assay type: functional; details: Homo sapiens
# [4] = target: T4, RNA-binding protein pos-1 (Caenorhabditis elegans, UniProt G5EF15); assay: inhibitors of POS-1/mex-3 RNA binding, dose response, biochemical, fluorescence polarization (AID 1964);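 note: purified POS-1 fused to maltose binding protein made in E. coli; potency of compounds blocking POS-1 binding to fluorescent RNA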
# T4 sequence (G5EF15 whole entry): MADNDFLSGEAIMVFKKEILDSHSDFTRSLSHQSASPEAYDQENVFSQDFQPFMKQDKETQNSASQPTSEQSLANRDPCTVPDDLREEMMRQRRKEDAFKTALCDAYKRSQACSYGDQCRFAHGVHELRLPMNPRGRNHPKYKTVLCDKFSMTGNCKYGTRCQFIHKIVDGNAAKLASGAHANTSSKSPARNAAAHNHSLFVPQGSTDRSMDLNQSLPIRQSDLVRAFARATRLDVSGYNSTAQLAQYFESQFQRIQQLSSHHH
# [5] = target: T5, Zinc finger protein mex-5 (Caenorhabditis elegans, UniProt Q9XUB2); assay: MEX-5/TCR-2 RNA interaction inhibitors, dose response, biochemical, C. elegans, fluorescence polarization (AID 1960)
# T5 sequence (Q9XUB2 whole entry): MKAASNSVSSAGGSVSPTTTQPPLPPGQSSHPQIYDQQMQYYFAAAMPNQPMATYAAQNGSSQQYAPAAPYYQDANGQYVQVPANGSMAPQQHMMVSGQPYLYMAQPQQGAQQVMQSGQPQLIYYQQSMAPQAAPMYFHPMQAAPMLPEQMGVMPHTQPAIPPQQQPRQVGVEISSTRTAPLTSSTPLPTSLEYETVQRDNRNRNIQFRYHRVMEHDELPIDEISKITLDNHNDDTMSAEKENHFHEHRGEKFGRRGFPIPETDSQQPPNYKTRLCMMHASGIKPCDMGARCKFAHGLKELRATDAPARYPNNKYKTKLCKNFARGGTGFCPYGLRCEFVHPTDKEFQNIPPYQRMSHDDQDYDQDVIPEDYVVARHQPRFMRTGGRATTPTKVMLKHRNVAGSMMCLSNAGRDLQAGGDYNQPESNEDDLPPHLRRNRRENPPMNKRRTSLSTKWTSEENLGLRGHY
# Cytochrome P450 2C9 = Cytochrome P450 2C9 (Homo sapiens, UniProt P11712)
# Cytochrome P450 3A4 = Cytochrome P450 3A4 (Homo sapiens, UniProt P08684);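 note: CYP3A4 tested as one member of a cytochrome P450 panel screen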
# [6] = cytotoxicity toward NIH3T3 fibroblasts, dose response, counter-screen, cell-based, ATP luminescence, mouse fibroblasts (AID 2010); assay type: functional;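 note: cells exposed to compound for about 90 hours before reading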
# [7] = inhibitors of intracellular T. cruzi replication, confirmation, NIH3T3 host cells, beta-gal luminescence (AID 2044); assay type: functional, cell-based;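 note: intracellular parasites grown in NIH/3T3 mouse fibroblasts as host cells; luminescent beta-galactosidase reporter signal from transgenic T. cruzi replicating inside host cells; inhibitors lower the luminescence signal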
# Sequence of Cytochrome P450 2C9 (P11712 whole entry): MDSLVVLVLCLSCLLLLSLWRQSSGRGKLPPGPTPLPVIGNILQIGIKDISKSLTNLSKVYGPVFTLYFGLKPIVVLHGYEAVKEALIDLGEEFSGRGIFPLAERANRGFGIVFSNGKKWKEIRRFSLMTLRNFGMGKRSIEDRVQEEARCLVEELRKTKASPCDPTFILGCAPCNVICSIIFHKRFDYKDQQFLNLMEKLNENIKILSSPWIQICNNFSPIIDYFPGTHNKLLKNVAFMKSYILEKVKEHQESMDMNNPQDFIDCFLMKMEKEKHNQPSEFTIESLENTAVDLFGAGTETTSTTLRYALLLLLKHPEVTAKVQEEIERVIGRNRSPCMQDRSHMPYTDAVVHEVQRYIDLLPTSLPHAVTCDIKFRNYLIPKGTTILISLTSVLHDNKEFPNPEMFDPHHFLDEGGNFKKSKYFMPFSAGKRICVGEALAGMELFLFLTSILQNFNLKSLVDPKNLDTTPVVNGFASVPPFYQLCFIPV
# Sequence of Cytochrome P450 3A4 (P08684 whole entry): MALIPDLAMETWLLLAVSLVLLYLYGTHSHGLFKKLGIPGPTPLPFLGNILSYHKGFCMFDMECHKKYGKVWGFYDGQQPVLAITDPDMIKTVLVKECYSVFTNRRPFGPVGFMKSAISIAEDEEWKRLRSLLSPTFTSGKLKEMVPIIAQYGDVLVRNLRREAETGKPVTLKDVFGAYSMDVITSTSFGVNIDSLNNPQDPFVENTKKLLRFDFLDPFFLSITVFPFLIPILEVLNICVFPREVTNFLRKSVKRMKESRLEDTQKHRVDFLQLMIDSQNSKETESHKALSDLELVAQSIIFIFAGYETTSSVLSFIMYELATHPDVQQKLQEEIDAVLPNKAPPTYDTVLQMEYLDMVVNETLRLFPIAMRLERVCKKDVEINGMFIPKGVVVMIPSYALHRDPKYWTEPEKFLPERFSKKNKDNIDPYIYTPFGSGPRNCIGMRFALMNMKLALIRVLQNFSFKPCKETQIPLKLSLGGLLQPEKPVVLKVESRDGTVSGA
smiles,measurement,setting,value
Cc1c(Nc2ncccc2C(=O)O)cccc1C(F)(F)F,AC50,Cytochrome P450 1A2,12.6 µM (inconclusive)
COc1ccc(CN2CCN(Cc3ccco3)CC2)cc1OC,IC50,[1],69.2 µM (active)
CCO/C(C)=C1/SC(=S)NC1=O,EC50,[2],> 195 µM (not active)
CN(CCC(=O)O)C1=Nc2ccc(Cl)cc2C(c2ccccc2)=[N+]([O-])C1,AC50,Cytochrome P450 1A2,0.0631 µM (inconclusive)
CC(C)(C)[C@H]1C=C(C(=O)Nc2ccccc2)O[C@@H](OCCCCO)C1,EC50,[2],5.49 µM (active)
Cc1ccn2c(Nc3ccc4c(c3)OCO4)c(-c3ccc(O)cc3)nc2c1,IC50,[1],39.7 µM (active)
CSc1ccc2c(c1)C(N1CCN(C)CC1)Cc1ccccc1S2 (stereo unspecified),AC50,[3],11.1 µM (active)
O=C(c1cnccn1)N1CCC[C@@]2(CCN(c3ccccn3)C2)C1,AC50,Cytochrome P450 1A2,20 µM (inconclusive)
N#Cc1c(N)n(-c2ccc(C(=O)O)cc2)c2nc3ccccc3nc12,EC50,[4],> 300 µM (not active)
same,EC50,[5],> 300 µM (not active)
Cc1[nH]c2ccccc2c1-c1csc(NC(=O)CSCCO)n1,IC50,[1],122 µM (active)
Cc1ccc(-c2cc(C(=O)NCc3ccc4c(c3)OCO4)no2)cc1,AC50,[3],> 195 µM (inactive)
CCOC(=O)C1=C(CN2c3ccccc3CC2C)NC(=O)NC1c1ccccc1 (stereo unspecified),AC50,Cytochrome P450 1A2,22.4 µM (inconclusive)
same,AC50,Cytochrome P450 2C9,25.1 µM (inconclusive)
O=C(c1cccnc1)N1CCN(Cc2cccc(Br)c2)CC1,IC50,[1],117 µM (active)
NC[C@H](CP(=O)(O)O)c1ccc(Cl)cc1,AC50,Cytochrome P450 1A2,39.8 µM (inconclusive)
Cc1cnc(CNc2ncncc2-c2ccc(C(=O)N(C)C)cc2)cn1,AC50,Cytochrome P450 1A2,20 µM (inconclusive)
N#C/C(=C\N1CCNC1=S)C(=O)c1ccc2ccccc2c1,AC50,Cytochrome P450 1A2,1.58 µM (inconclusive)
same,AC50,Cytochrome P450 2C9,3.16 µM (inconclusive)
O=C(NCCOc1ccccc1)C1Nc2ccc(OC(F)(F)F)cc2C2C=CCC12 (stereo unspecified),EC50,[4],> 300 µM (not active)
same,EC50,[5],> 300 µM (not active)
CCN1CCc2c(OCc3ccccc3)cccc2C1=O,EC50,[2],37.3 µM (active)
COc1ccc(OC(=O)C2CC(=O)N(c3ccc(C)cc3)C2)cc1 (stereo unspecified),IC50,[1],48.3 µM (active)
CCC/C=C(\CCC)C(NC(=O)c1ccc(-c2ccccc2)cc1)c1ccc(C(=O)OC)cc1 (stereo unspecified),AC50,Cytochrome P450 1A2,0.631 µM (inconclusive)
same,AC50,Cytochrome P450 3A4,6.31 µM (inconclusive)
Cn1cccc1-c1nc2ccccc2n1Cc1ccccc1,AC50,[3],10.4 µM (active)
Cc1nc2sc3c(NCc4ccco4)ncnc3c2c2c1COC(C)(C)C2,EC50,[2],> 195 µM (not active)
CCCc1c(O)nc(SCC(=O)N2CCCCC2)nc1O,EC50,[4],> 300 µM (not active)
same,EC50,[5],> 300 µM (not active)
COc1ccc(C(=O)CSc2nnc(CN3CCCCC3)n2-c2ccc(Cl)cc2)cc1OC,AC50,[3],2.91 µM (active)
COc1cc(N2N=C(c3ccccc3)CC2c2ccccc2)c(C=O)cc1C=O (stereo unspecified),EC50,[2],> 195 µM (not active)
COc1ccc(-c2ccc(/C=C3\C(=O)N(c4ccccc4)N=C3c3ccccc3)o2)c([N+](=O)[O-])c1,AC50,Cytochrome P450 1A2,5.01 µM (inconclusive)
Cc1c(N=Nc2ccc(O)cc2)c(=O)n(-c2ccccc2)n1C,IC50,[1],19.8 µM (active)
CC(C)(C)NC(=O)c1c(F)c(F)c(F)c(F)c1F,EC50,[2],> 195 µM (not active)
Cc1nn2c(N3CCOCC3)c3c(nc2c1-c1ccccc1)CCCC3,EC50,[4],> 300 µM (not active)
same,EC50,[5],> 300 µM (not active)
COc1cccc(O)c1CN1CCC(C(=O)Nc2ccc(-c3cccc(C)c3)cc2)CC1,AC50,[3],6.71 µM (active)
CCOC(=O)c1c(NC(=O)CSc2nnc(-c3c[nH]c4ccccc34)n2C)sc2c1CCCC2,EC50,[2],> 195 µM (not active)
COc1cccc(N(C(=O)c2cccs2)c2nc3ccccc3s2)c1,EC50,[2],> 195 µM (not active)
COc1nc(-c2ccccc2)ccc1-c1noc(COc2ccccc2)n1,EC50,[2],> 195 µM (not active)
CC1(C)CC(=O)C(=NNc2ccc(OC(F)F)cc2)C(=O)C1,EC50,[2],> 195 µM (not active)
Cc1cc(C)c(NC(=O)Nc2ccc3c(c2)OCO3)c(C)c1,EC50,[2],> 195 µM (not active)
N#Cc1cccc(NC(=O)N2CCCC3(CCN(C(=O)c4cc(C(F)(F)F)cc(C(F)(F)F)c4)CC3)C2)c1,AC50,Cytochrome P450 1A2,6.31 µM (inconclusive)
COc1ccc(C(=O)N2CCC3(CCN(Cc4ccc(C#N)cc4)CC3)CC2)cc1,AC50,Cytochrome P450 1A2,12.6 µM (inconclusive)
same,AC50,Cytochrome P450 2C9,31.6 µM (inconclusive)
COC(=O)c1ccc(-n2c(C)cc(C(=O)COC(=O)CNS(=O)(=O)c3ccc(C)cc3)c2C)cc1,EC50,[4],> 300 µM (not active)
same,EC50,[5],> 300 µM (not active)
Cc1ccccc1OCC(O)Cn1c2ccccc2c2ccccc21 (stereo unspecified),AC50,[3],5.66 µM (active)
Cc1cc(C)cc(OCC(O)CN2CC(C)OC(C)C2)c1 (stereo unspecified),EC50,[2],32.9 µM (active)
Clc1ccc(-c2nnc(-c3ccccc3)c(-c3ccccc3)n2)cc1,AC50,[3],10.1 µM (active)
COc1ccc(NC2CCCN(C(=O)C3(C)CCCCC3)C2)cc1 (stereo unspecified),IC50,[1],80.7 µM (active)
CCCCCCSc1ccc(-c2nc3cnccn3c2NCCCC)cc1,AC50,[3],3.59 µM (active)
O=C(CNC(=O)c1ccccc1Br)N/N=C/c1ccc(O)cc1,IC50,[1],58.7 µM (active)
O=c1/c(=C\c2ccc(O)cc2)sc2nc(-c3ccccc3)c(-c3ccccc3)n12,EC50,[4],> 300 µM (not active)
same,EC50,[5],> 300 µM (inconclusive)
Oc1ccc(/C=N/N=C/c2ccc(O)cc2)cc1,IC50,[1],77.6 µM (active)
Oc1cc(Br)ccc1/C=N/c1ccc(N2CCCCC2)cc1,IC50,[1],5.88 µM (active)
Cc1ccc2nc(Cl)c3cc(C(=O)N(CCN(C)C)Cc4ccco4)sc3c2c1,EC50,[6],> 60 µM (not active)
same,EC50,[7],0.123 µM (active)
same,AC50,[3],1.86 µM (active)
CC/C(=C(\c1ccccc1)c1ccc(OCCN(C)C)cc1)c1ccccc1 [TAMOXIFEN CITRATE],AC50,[3],4.53 µM (active)
